Assay results reported in patent US11485987B2, “Methods for inducing bioorthogonal reactivity” (University of Delaware, priority 2015, dated 2022).

What was measured:
APEX2 (SEQ ID NO:1) = biological target: T1, APEX2 (SEQ ID NO:1) (Glycine max, UniProt Q43758, A134P/E112K/K14D/W41F); test: Oxidation of DHT by APEX2, UV-Vis initial rates and kinetic parameters; format: biochemical; conditions: for Initial rate of oxidation of DHT by APEX2 (SEQ ID NO: 1) / Initial rate of oxidation of DHT by APEX2 (SEQ ID NO: 1) + SOD: PBS, 100 μM EDTA, first 100 s; for Initial rate of oxidation of DHT by APEX2 (SEQ ID NO: 1) + SOD: SOD 1 μM
T1 sequence (Q43758 1-250 A134P/E112K/K14D/W41F): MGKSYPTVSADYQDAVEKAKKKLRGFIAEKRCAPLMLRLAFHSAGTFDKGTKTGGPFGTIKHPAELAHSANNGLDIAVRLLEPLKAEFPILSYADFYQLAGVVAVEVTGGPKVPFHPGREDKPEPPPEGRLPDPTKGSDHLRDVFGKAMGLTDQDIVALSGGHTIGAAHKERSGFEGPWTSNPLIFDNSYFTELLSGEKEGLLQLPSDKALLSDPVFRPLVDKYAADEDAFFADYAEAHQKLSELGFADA
Experimental: UV-Vis and fluorescence measurements were conducted in quartz cuvettes. All reactions were conducted in phosphate buffered saline (PBS) containing 100 μM EDTA with a pH=7.4. The PBS was prepared by adding 25 mM phosphate salts (Na2HPO4 and NaH2PO4), 100 mM NaCl, 100 μM EDTA to DI water. EDTA was added to quench free metals that can oxidize DHT. The buffer was pH adjusted to 7.4 using 1 mM HCl and 1 mM NaOH. UV experiments were stirred at 25° C. in a temperature-controlled cuvette holder of the spectrophotometer. Solutions of 15 or 16 were prepared from methanol stock solutions.
15 or 16 (60 μM) from methanol stock solutions was added to PBS containing 100 μM EDTA. After 10s, APEX2 (SEQ ID NO:1) (275 nM) was dosed in and oxidation was monitored at 325 nm for 15 and 285 nm for 16 at 60s intervals (FIG. 10B-C).
16 (15 μM) DHT from methanol stock solutions was added to PBS containing 100 μM EDTA. After 10s, APEX2 (SEQ ID NO:1) (275 nM) or HRP (15 nM) was dosed in and oxidation was monitored at 285 nm at 10s intervals (FIG. 10D)
SOD (1 μM) was added to PBS containing 100 μM EDTA. 15 or 16 (60 μM) was added from methanol stock solutions. After 10s, APEX2 (SEQ ID NO:1) or F41A APEX2 (275 nM) was dosed in and oxidation was monitored at 325 nm for 15 and 285 nm for 16 at 60s intervals.
The initial rate of oxidation was calculated from the first 100 seconds after APEX2 (SEQ ID NO:1) or F41A APEX2 was added ([…]). In the assays where SOD was added, SOD (1 μM) was added to PBS containing 100 μM EDTA and 15 or 16 was dosed in. 10 seconds later, APEX2 (SEQ ID NO:1) or F41A APEX2 ([…]) was added and the rate of oxidation was calculated from the first 100 seconds after APEX2 (SEQ ID NO:1) or F41A APEX2 ([…]) addition. The initial rate of oxidation was adjusted to background oxidation of DHT in PBS with 100 μM EDTA. Kinetic parameters (Table 2) were determined using GraphPad's Prism 6 software from the data presented below (Table 3-4).

ferricytochrome C = test: Background oxidation of DHTZ by ferricytochrome C; format: biochemical; conditions: ferricytochrome c two orders of magnitude higher concentration than APEX2
Text: Superoxide has been reported to reduce ferricytochrome C Fe(III) to ferrocytochrome C Fe(II) and O2. Superoxide production during oxidation of DHTZ by APEX2 (SEQ ID NO:1) has been detected by following the reduction of ferricytochrome C Fe(III) to ferrocytochrome C Fe(II) (λmax=550 nm) by UV-Vis spectrometry (FIG. 11C-D). Two wavelengths, 325 nm for tetrazine formation and 550 nm for ferrocytochrome c formation, were followed where reduction of ferricytochrome C by the superoxide byproduct formed during DHTZ oxidation was observed. Addition of SOD stopped the formation of ferrocytochrome C, thus confirming that superoxide is formed during oxidation of DHTZ by APEX2 (SEQ ID NO:1). A stoichiometric background oxidation of DHTZ by ferricytochrome C was observed where the rate of the oxidation of 15 by ferricytochrome c was 2× slower than APEX2 (SEQ ID NO:1) at ferricytochrome c concentrations two orders of magnitude higher than APEX2 (SEQ ID NO:1). While oxidation of DHTZ by cytochrome C is not catalytic or feasible for intracellular applications, it does confirm that DHTZ undergoes two successive one-electron oxidations as cytochrome C cannot oxidize substrates by two-electron oxidations.
15 (10 μM) from stock solution was added to PBS containing 100 μM EDTA. Ferricytochrome C (60 μM) was dosed in after 10 seconds followed by addition of APEX2 (SEQ ID NO:1) ([…]). […]

O=C(O)CCCC(=O)Nc1ccc(C2=NNC(c3ccccn3)=NN2)nc1 [compound 15]
rate of catalysis by APEX2 slower than by HRP (APEX2 (SEQ ID NO:1); APEX2 versus HRP (FIG. 10D)): approximately 100 × | Initial rate of oxidation of DHT by APEX2 (SEQ ID NO: 1) (APEX2 (SEQ ID NO:1); DHT 5 μM): 0.903 +/− 0.026 ×10^−8 M/s | Initial rate of oxidation of DHT by APEX2 (SEQ ID NO: 1) + SOD (APEX2 (SEQ ID NO:1); DHT 6 μM): 1.104 +/− 0.028 ×10^−8 M/s | Initial rate of oxidation of DHT by APEX2 (SEQ ID NO: 1) (APEX2 (SEQ ID NO:1); DHT 10 μM): 1.286 +/− 0.141 ×10^−8 M/s | Initial rate of oxidation of DHT by APEX2 (SEQ ID NO: 1) + SOD (APEX2 (SEQ ID NO:1); DHT 12 μM): 1.831 +/− 0.169 ×10^−8 M/s | Initial rate of oxidation of DHT by APEX2 (SEQ ID NO: 1) (APEX2 (SEQ ID NO:1); DHT 15 μM): 1.442 +/− 0.298 ×10^−8 M/s | Initial rate of oxidation of DHT by APEX2 (SEQ ID NO: 1) + SOD (APEX2 (SEQ ID NO:1); DHT 15 μM): 1.765 +/− 0.172 ×10^−8 M/s | Initial rate of oxidation of DHT by APEX2 (SEQ ID NO: 1) (APEX2 (SEQ ID NO:1); DHT 20 μM): 1.872 +/− 0.028 ×10^−8 M/s | Initial rate of oxidation of DHT by APEX2 (SEQ ID NO: 1) + SOD (APEX2 (SEQ ID NO:1); DHT 20 μM): 2.166 +/− 0.201 ×10^−8 M/s | Initial rate of oxidation of DHT by APEX2 (SEQ ID NO: 1) (APEX2 (SEQ ID NO:1); DHT 25 μM): 1.628 +/− 0.133 ×10^−8 M/s | Initial rate of oxidation of DHT by APEX2 (SEQ ID NO: 1) + SOD (APEX2 (SEQ ID NO:1); DHT 25 μM): 2.937 +/− 0.487 ×10^−8 M/s | Initial rate of oxidation of DHT by APEX2 (SEQ ID NO: 1) (APEX2 (SEQ ID NO:1); DHT 30 μM): 1.878 +/− 0.055 ×10^−8 M/s | Initial rate of oxidation of DHT by APEX2 (SEQ ID NO: 1) + SOD (APEX2 (SEQ ID NO:1); DHT 30 μM): 2.418 +/− 0.038 ×10^−8 M/s | Initial rate of oxidation of DHT by APEX2 (SEQ ID NO: 1) (APEX2 (SEQ ID NO:1); DHT 40 μM): 2.305 +/− 0.101 ×10^−8 M/s | Initial rate of oxidation of DHT by APEX2 (SEQ ID NO: 1) + SOD (APEX2 (SEQ ID NO:1); DHT 40 μM): 3.230 +/− 0.348 ×10^−8 M/s | Initial rate of oxidation of DHT by APEX2 (SEQ ID NO: 1) (APEX2 (SEQ ID NO:1); DHT 50 μM): 2.445 +/− 0.303 ×10^−8 M/s | Initial rate of oxidation of DHT by APEX2 (SEQ ID NO: 1) + SOD (APEX2 (SEQ ID NO:1); DHT 50 μM): 3.305 +/− 0.436 ×10^−8 M/s | Initial rate of oxidation of DHT by APEX2 (SEQ ID NO: 1) (APEX2 (SEQ ID NO:1); DHT 60 μM): 2.603 +/− 0.306 ×10^−8 M/s | Initial rate of oxidation of DHT by APEX2 (SEQ ID NO: 1) + SOD (APEX2 (SEQ ID NO:1); DHT 60 μM): 4.169 +/− 0.242 ×10^−8 M/s | Initial rate of oxidation of DHT by APEX2 (SEQ ID NO: 1) (APEX2 (SEQ ID NO:1); DHT 70 μM): 3.197 +/− 0.025 ×10^−8 M/s | Initial rate of oxidation of DHT by APEX2 (SEQ ID NO: 1) (APEX2 (SEQ ID NO:1); DHT 75 μM): 3.460 +/− 0.492 ×10^−8 M/s | Initial rate of oxidation of DHT by APEX2 (SEQ ID NO: 1) + SOD (APEX2 (SEQ ID NO:1); DHT 75 μM): 4.196 +/− 0.444 ×10^−8 M/s | Initial rate of oxidation of DHT by APEX2 (SEQ ID NO: 1) (APEX2 (SEQ ID NO:1); DHT 85 μM): 3.978 +/− 0.119 ×10^−8 M/s | Initial rate of oxidation of DHT by APEX2 (SEQ ID NO: 1) + SOD (APEX2 (SEQ ID NO:1); DHT 85 μM): 4.939 +/− 0.202 ×10^−8 M/s | rate of oxidation by ferricytochrome c slower than APEX2 (ferricytochrome C): 2 ×
